Experimental data published in patent publication US9695154B2, “Heteroaryl inhibitors of sumo activating enzyme” (MILLENNIUM PHARMACEUTICALS, INC., priority 2013, dated 2017).

Target: T1, recombinant human SAE enzyme (Homo sapiens, UniProt Q9UBT2)
T1 sequence (Q9UBT2 1-640): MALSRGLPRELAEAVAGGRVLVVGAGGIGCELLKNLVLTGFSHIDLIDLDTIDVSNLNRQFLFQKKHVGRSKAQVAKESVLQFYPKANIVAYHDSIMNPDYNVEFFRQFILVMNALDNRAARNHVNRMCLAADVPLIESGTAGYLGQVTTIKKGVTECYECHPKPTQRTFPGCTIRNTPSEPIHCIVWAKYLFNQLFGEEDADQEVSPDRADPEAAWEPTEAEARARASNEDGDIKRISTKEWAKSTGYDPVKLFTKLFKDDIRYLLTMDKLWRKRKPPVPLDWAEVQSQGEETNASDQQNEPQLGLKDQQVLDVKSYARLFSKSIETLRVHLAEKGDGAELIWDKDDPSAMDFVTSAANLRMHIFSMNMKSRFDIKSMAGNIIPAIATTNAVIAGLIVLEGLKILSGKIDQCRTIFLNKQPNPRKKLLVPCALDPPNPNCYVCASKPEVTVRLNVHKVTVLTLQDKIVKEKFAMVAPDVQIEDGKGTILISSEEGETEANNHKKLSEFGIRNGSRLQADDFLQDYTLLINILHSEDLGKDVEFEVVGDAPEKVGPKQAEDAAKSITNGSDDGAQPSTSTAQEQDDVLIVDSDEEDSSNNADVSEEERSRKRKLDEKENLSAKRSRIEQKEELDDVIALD
T1 sequence (Q9UBE0 1-346 partner): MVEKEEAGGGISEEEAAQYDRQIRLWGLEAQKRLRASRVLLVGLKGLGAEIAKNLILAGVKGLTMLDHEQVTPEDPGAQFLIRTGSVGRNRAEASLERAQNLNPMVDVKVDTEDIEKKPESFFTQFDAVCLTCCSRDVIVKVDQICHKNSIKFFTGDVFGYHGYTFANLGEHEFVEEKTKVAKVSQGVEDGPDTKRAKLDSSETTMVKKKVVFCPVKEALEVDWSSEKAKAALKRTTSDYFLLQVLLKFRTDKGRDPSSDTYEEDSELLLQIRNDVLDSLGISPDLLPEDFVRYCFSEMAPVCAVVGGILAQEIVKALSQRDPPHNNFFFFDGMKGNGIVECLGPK
Test: SAE HTRF Enzyme Assay
Assay type: biochemical
Conditions: for IC50: class symbols A-C; for inhibition at 0.111 µM: compound concentration 0.111 μM, read-out: Percent Inhibition
How it was run: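 Reaction with 0.11 nM recombinant human SAE, 0.5 μM ATP, 0.01 μM Ubc9-GST, 0.125 μM Sumo-Flag in HEPES pH 7.5, MgCl2, GSH, BSA, 105 min at 24 °C. Stopped with EDTA/KF buffer carrying Eu-anti-Flag and anti-GST-APC; HTRF read after 2 h; % inhibition or IC50.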

| SMILES | IC50 | inhibition at 0.111 µM |
| --- | --- | --- |
| NS(=O)(=O)OC[C@H]1C[C@@H](Nc2ncncc2C(=O)c2ccn(Cc3c(F)c(F)c(F)c(F)c3F)n2)C[C@@H]1O [Compound I-202, {(1R,2S,4R)-2-hydroxy-4-[(5-{[1-(pentafluorobenzyl)-1H-pyrazol-3-yl]carbonyl}pyrimidin-4-yl)amino]cyclopentyl}methyl sulfamate] | 0.01 to 0.1 µM | 83% |
| NS(=O)(=O)OC[C@H]1C[C@@H](Nc2ncncc2C(=O)c2ccn(Cc3ccccc3)n2)C(F)(F)[C@@H]1O [Compound I-203, [(1R,2R,4R)-4-({5-[(1-benzyl-1H-pyrazol-3-yl)carbonyl]pyrimidin-4-yl}amino)-3,3-difluoro-2-hydroxycyclopentyl]methyl sulfamate] | < 0.01 µM | 94% |
| NS(=O)(=O)OC[C@H]1C[C@@H](Nc2ncncc2C(=O)c2ccn(Cc3ccc(Cl)c(Br)c3)n2)[C@H](O)[C@@H]1O [Compound I-204, {(1R,2R,3S,4R)-4-[(5-{[1-(3-bromo-4-chlorobenzyl)-1H-pyrazol-3-yl]carbonyl}pyrimidin-4-yl)amino]-2,3-dihydroxycyclopentyl}methyl sulfamate] | < 0.01 µM | 99% |
| NS(=O)(=O)OC[C@H]1C[C@@H](Nc2ncncc2C(=O)c2ccn(-c3ccccc3)n2)C[C@@H]1O [Compound I-205, [(1R,2S,4R)-2-Hydroxy-4-({5-[(1-phenyl-1H-pyrazol-3-yl)carbonyl]pyrimidin-4-yl}amino)cyclopentyl]methyl sulfamate] | 0.01 to 0.1 µM | 60% |
| NS(=O)(=O)OC[C@H]1C[C@@H](Nc2ncncc2C(=O)c2ccn(Cc3ccccc3Cl)n2)C[C@@H]1O [Compound I-206, {(1R,2S,4R)-4-[(5-{[1-(2-chlorobenzyl)-1H-pyrazol-3-yl]carbonyl}pyrimidin-4-yl)amino]-2-hydroxycyclopentyl}methyl sulfamate] | < 0.01 µM | 96% |
| NS(=O)(=O)OC[C@H]1C[C@@H](Nc2ncncc2C(=O)c2ccn(Cc3cc(Br)ccc3Cl)n2)[C@@H](F)[C@@H]1O [Compound I-207, {(1R,2R,3R,4R)-4-[(5-{[1-(5-bromo-2-chlorobenzyl)-1H-pyrazol-3-yl]carbonyl}pyrimidin-4-yl)amino]-3-fluoro-2-hydroxycyclopentyl}methyl sulfamate] | < 0.01 µM | 99% |
| Cc1cc(Cn2ccc(C(=O)c3cncnc3N[C@@H]3C[C@H](COS(N)(=O)=O)[C@@H](O)[C@@H]3F)c2)on1 [Compound I-208, [(1R,2R,3R,4R)-3-fluoro-2-hydroxy-4-{[5-({1-[(3-methylisoxazol-5-yl)methyl]-1H-pyrrol-3-yl}carbonyl)pyrimidin-4-yl]amino)cyolopentyl]methyl sulfomate] | < 0.01 µM | 95% |
| NS(=O)(=O)OC[C@H]1C[C@@H](Nc2ncncc2C(=O)c2ccn(Cc3ccc(C(F)(F)F)o3)c2)[C@@H](F)[C@@H]1O [Compound I-209, [(1R,2R,3R,4R)-3-fluoro-2-hydroxy-4-({5-[(1-{[5-(trifluoromethyl)-2-furyl]methyl}-1H-pyrrol-3-yl)carbonyl]pyrimidin-4-yl}amino)cyclopentyl]methyl sulfamate] | < 0.01 µM | 99% |
| Cc1ccc(Cn2ccc(C(=O)c3cncnc3N[C@@H]3C[C@H](COS(N)(=O)=O)[C@@H](O)C3)n2)cc1F [Compound I-210, {(1R,2S,4R)-4-[(5-{[1-(3-Fluoro-4-methylbenzyl)-1H-pyrazol-3-yl]carbonyl}pyrimidin-4-yl)amino]-2-hydroxycyclopentyl}methyl sulfamate] | < 0.01 µM | 98% |
| NS(=O)(=O)OC[C@H]1C[C@@H](Nc2ncncc2C(=O)c2ccn(Cc3ccc(F)c(OC(F)(F)F)c3)c2)C[C@@H]1O [Compound I-211, [(1R,2S,4R)-4-{[5-({1-[4-fluoro-3-(trifluoromethoxy)benzyl]-1H-pyrrol-3-yl}carbonyl)pyrimidin-4-yl]amino}-2-hydroxycyclopentyl]methyl sulfamate] | < 0.01 µM | 97% |
| NS(=O)(=O)OC[C@H]1C[C@@H](Nc2ncncc2C(=O)c2ccn(Cc3ccc(F)c(F)c3)n2)C[C@@H]1O [Compound I-212, {(1R,2S,4R)-4-[(5-{[1-(3,4-difluorobenzyl)-1H-pyrazol-3-yl]carbonyl}pyrimidin-4-yl)amino]-2-hydroxycyclopentyl}methyl sulfamate] | < 0.01 µM | 95% |
| NS(=O)(=O)OC[C@H]1C[C@@H](Nc2ncncc2C(=O)c2ccn(Cc3cc(F)cc(C(F)(F)F)c3)c2)C[C@@H]1O [Compound I-213, [(1R,2S,4R)-4-{[5-({1-[3-fluoro-5-(trifluoromethyl)benzyl]-1H-pyrrol-3-yl}carbonyl)pyrimidin-4-yl]amino}-2-hydroxycyclopentyl]methyl sulfamate] | < 0.01 µM | 97% |
| NS(=O)(=O)OC[C@H]1C[C@@H](Nc2ncncc2C(=O)c2ccn(Cc3cn4ccccc4n3)n2)C[C@@H]1O [Compound I-214, {(1R,2S,4R)-2-hydroxy-4-[(5-{[1-(imidazo[1,2-a]pyridin-2-ylmethyl)-1H-pyrazol-3-yl]carbonyl}pyrimidin-4-yl)amino]cyclopentyl}methyl sulfamate] | < 0.01 µM | 98% |
| NS(=O)(=O)OC[C@H]1C[C@@H](Nc2ncncc2C(=O)c2ccn(Cc3cccc(Cl)c3)n2)C[C@@H]1O [Compound I-215, {(1R,2S,4R)-4-[(5-{[1-(3-chlorobenzyl)-1H-pyrazol-3-yl]carbonyl}pyrimidin-4-yl)amino]-2-hydroxycyclopentyl}methyl sulfamate] | < 0.01 µM | 99% |
| Cn1cccc(Cn2ccc(C(=O)c3cncnc3N[C@@H]3C[C@H](COS(N)(=O)=O)[C@@H](O)[C@@H]3F)c2)c1=O [Compound I-216, [(1R,2R,3R,4R)-3-fluoro-2-hydroxy-4-{[5-({1-[(1-methyl-2-oxo-1,2-dihydropyridin-3-yl)methyl]-1H-pyrrol-3-yl}carbonyl)pyrimidin-4-yl]amino}cyclopentyl]methyl sulfamate] | < 0.01 µM | 97% |
| NS(=O)(=O)OC[C@H]1C[C@@H](Nc2ncncc2C(=O)c2ccn(Cc3ccccc3)c2)[C@H](O)[C@@H]1O [Compound I-217, [(1R,2R,3S,4R)-4-({5-[(1-Benzyl-1H-pyrrol-3-yl)carbonyl]pyrimidin-4-yl}amino)-2,3-dihydroxycyclopentyl]methyl sulfamate] | < 0.01 µM | 98% |
| NS(=O)(=O)OC[C@H]1C[C@@H](Nc2ncncc2C(=O)c2ccn(Cc3ccc(Cl)c(OC(F)(F)F)c3)n2)[C@@H](F)[C@@H]1O [Compound I-218, [(1R,2R,3R,4R)-4-{[5-({1-[4-chloro-3-(trifluoromethoxy)benzyl]-1H-pyrazol-3-yl}carbonyl)pyrimidin-4-yl]amino}-3-fluoro-2-hydroxycyclopentyl]methyl sulfamate] | 0.01 to 0.1 µM | 89% |
| NS(=O)(=O)OC[C@H]1C[C@@H](Nc2ncncc2C(=O)c2ccn(Cc3cccc(F)c3F)n2)C[C@@H]1O [Compound I-219, {(1R,2S,4R)-4-[(5-{[1-(2,3-difluorobenzyl)-1H-pyrazol-3-yl]carbonyl}pyrimidin-4-yl)amino]-2-hydroxycyclopentyl}methyl sulfamate] | < 0.01 µM | 99% |
